For 30 molecules, EC50 results are on record in ChEMBL document CHEMBL2046380, “Synthesis and structure-activity relationship of disubstituted benzamides as a novel class of antimalarial agents” (Bioorg Med Chem Lett, 2012).

One may read the EC50 as the concentration that produces a half-maximal response. High values mean weaker potency, low ones greater potency.

The test system of experiment [1] is Plasmodium falciparum. Put plainly: Antimalarial activity against […] incubated for 72 hrs by DNA staining based MARK1 growth inhibition assay. It counts as functional, organism-based.
In another experiment the test system is Raji. Put plainly: Cytotoxicity against human Raji cells after 72 hrs by […] CellTiterGlo reagent assay. It counts as cell-based. Background: Resazurin is reduced to fluorescent resorufin, in cell work by metabolically active cells.
In another experiment the test system is HEK293. Put plainly: Cytotoxicity against human HEK293 cells after 72 hrs by […] CellTiterGlo reagent assay. The conditions noted are these: HEK293, 72 h. The experiment is classed as cell-based.
The next experiment deals with HepG2. Put plainly: Cytotoxicity against human HepG2 cells after 72 hrs by […] CellTiterGlo reagent assay. It counts as cell-based. The conditions noted are these: HepG2, 72 h.
In experiment [2] the test system is Plasmodium falciparum. Put plainly: Antimalarial activity against chloroquine-sensitive Plasmodium falciparum 3D7 incubated for 72 hrs by DNA staining based MAR3D7 growth inhibition assay. The conditions noted are these: 3D7, 72 h. The experiment is classed as functional, organism-based.
In a further experiment the test system is BJ. Put plainly: Cytotoxicity against human BJ cells after 72 hrs by […] CellTiterGlo reagent assay. It counts as cell-based.

`CC(C)N(Cc1cccc(OCCCCCC(=O)O)c1)C(=O)c1ccc(-c2cc3ccccc3n2S(=O)(=O)c2ccccc2)cc1`: the EC50 in the experiment on Plasmodium falciparum [1] is more than 15 µM; with Raji, more than 26 µM; in the experiment with HEK293, more than 26 µM; in the experiment on HepG2, more than 26 µM; in the experiment with Plasmodium falciparum [2], more than 15 µM; in the experiment with BJ it was more than 26 µM.
Turning to `CC(C)N(Cc1cccc(OCCCCCC(=O)O)c1)C(=O)c1ccc(-c2c[nH]c3ccccc23)cc1`, the EC50 is more than 15 µM in the experiment with Plasmodium falciparum [1]; more than 26 µM in the experiment with Raji; more than 26 µM in the experiment with HEK293; more than 26 µM in the experiment with HepG2; more than 15 µM in the experiment with Plasmodium falciparum [2]; more than 26 µM in the experiment with BJ.
On to `CC(C)N(Cc1cccc(OCCCCCC(=O)O)c1)C(=O)c1ccc(-c2cccc(CC#N)c2)cc1`, for which the EC50 was more than 15 µM in the experiment on Plasmodium falciparum [1]; more than 26 µM with Raji; more than 26 µM in the experiment with HEK293; more than 26 µM in the experiment with HepG2; more than 15 µM in the experiment with Plasmodium falciparum [2]; more than 26 µM in the experiment on BJ.
Turning to `CCOC(=O)CCCCCOc1cccc(CN(C(=O)c2ccccc2)C(C)C)c1`, the EC50 in the experiment with Plasmodium falciparum [1] was more than 12.5 µM; with Raji it was more than 26 µM; in the experiment on HEK293 it was more than 26 µM; with HepG2, more than 26 µM; with Plasmodium falciparum [2] it was more than 15 µM; with BJ it was more than 26 µM.
Consider `CCOC(=O)CCCCCOc1cccc(CN(C(=O)c2ccc(-c3cccc4ccccc34)cc2)C(C)C)c1`, for which the EC50 is more than 15 µM in the experiment on Plasmodium falciparum [1]; more than 26 µM in the experiment on Raji; more than 26 µM in the experiment with HEK293; more than 26 µM in the experiment with HepG2; more than 15 µM in the experiment on Plasmodium falciparum [2]; more than 26 µM with BJ.
`CCOC(=O)CCCCCOc1cccc(CN(C(=O)c2ccc(-c3ccc4ccccc4c3)cc2)C(C)C)c1`: the EC50 with Plasmodium falciparum [1] is more than 15 µM; in the experiment on Raji it was more than 26 µM; with HEK293 it was more than 26 µM; in the experiment with HepG2, more than 26 µM; with Plasmodium falciparum [2] it was more than 15 µM; in the experiment with BJ, more than 26 µM.
For the molecule `CCOC(=O)CCCCCOc1cccc(CN(C(=O)c2ccc(-c3cccc(-c4ccccc4)c3)cc2)C(C)C)c1`, the EC50 in the experiment with Plasmodium falciparum [1] is more than 15 µM; with Raji it was more than 26 µM; with HEK293, more than 26 µM; with HepG2, more than 26 µM; with Plasmodium falciparum [2] it was more than 15 µM; in the experiment on BJ, more than 26 µM.
`CCOC(=O)CCCCCOc1cccc(CN(C(=O)c2ccc(-c3cccc(C(C)=O)c3)cc2)C(C)C)c1`: the EC50 was more than 15 µM with Plasmodium falciparum [1]; more than 26 µM in the experiment with Raji; more than 26 µM in the experiment with HEK293; more than 26 µM in the experiment on HepG2; more than 1.5 µM in the experiment on Plasmodium falciparum [2]; more than 26 µM with BJ.
Consider `CCOC(=O)CCCCCOc1cccc(CN(C(=O)c2ccc(-c3cccc(OCC(C)C)c3)cc2)C(C)C)c1`, for which the EC50 with Plasmodium falciparum [1] is more than 15 µM; in the experiment with Raji it was more than 26 µM; with HEK293, more than 26 µM; with HepG2, more than 26 µM; in the experiment with Plasmodium falciparum [2], more than 15 µM; in the experiment on BJ, more than 26 µM.
On to `CCOC(=O)CCCCCOc1cccc(CN(C(=O)c2ccc(-c3cccc(OC(C)C)c3)cc2)C(C)C)c1`, for which the EC50 was more than 15 µM in the experiment on Plasmodium falciparum [1]; more than 26 µM with Raji; more than 26 µM in the experiment with HEK293; more than 26 µM with HepG2; more than 15 µM in the experiment with Plasmodium falciparum [2]; more than 26 µM in the experiment on BJ.
As to `CCOC(=O)CCCCCOc1cccc(CN(C(=O)c2ccc(-c3cccc(Oc4ccccc4)c3)cc2)C(C)C)c1`, the EC50 in the experiment on Plasmodium falciparum [1] was more than 10.9 µM; in the experiment on Raji it was more than 19.7 µM; with HEK293, more than 19.7 µM; with HepG2, more than 26 µM; with Plasmodium falciparum [2], more than 10.9 µM; in the experiment with BJ, more than 19.7 µM.
With `CCOC(=O)CCCCCOc1cccc(CN(C(=O)c2ccc(-c3cccc(OCc4ccccc4)c3)cc2)C(C)C)c1`, the EC50 in the experiment on Plasmodium falciparum [1] was more than 15 µM; with Raji, more than 26 µM; in the experiment with HEK293, more than 26 µM; in the experiment with HepG2 it was more than 26 µM; with Plasmodium falciparum [2], more than 15 µM; with BJ, more than 26 µM.
In the case of `CCOC(=O)CCCCCOc1cccc(CN(C(=O)c2ccc(-c3cccc(OC)c3)cc2)C(C)C)c1`, the EC50 with Plasmodium falciparum [1] was more than 11.7 µM; in the experiment on Raji it was more than 21 µM; in the experiment on HEK293 it was more than 21.1 µM; with HepG2, more than 21.1 µM; in the experiment with Plasmodium falciparum [2] it was more than 11.7 µM; with BJ, more than 21.1 µM.
Regarding `CCOC(=O)CCCCCOc1cccc(CN(C(=O)c2ccc(-c3cccc(OCC)c3)cc2)C(C)C)c1`, the EC50 in the experiment with Plasmodium falciparum [1] was more than 12.4 µM; with Raji, more than 22.4 µM; in the experiment with HEK293 it was more than 22.4 µM; with HepG2, more than 22.4 µM; with Plasmodium falciparum [2], more than 12.4 µM; in the experiment with BJ it was more than 22.4 µM.
Turning to `CCOC(=O)CCCCCOc1cccc(CN(C(=O)c2ccc(-c3ccc4c(c3)OCCO4)cc2)C(C)C)c1`, the EC50 in the experiment on Plasmodium falciparum [1] was more than 13.5 µM; in the experiment with Raji, more than 24.5 µM; in the experiment with HEK293, more than 24.5 µM; with HepG2 it was more than 24.5 µM; with Plasmodium falciparum [2], more than 13.5 µM; in the experiment with BJ, more than 24.5 µM.
`CCOC(=O)CCCCCOc1cccc(CN(C(=O)c2ccc(-c3cc(OC)cc(OC)c3)cc2)C(C)C)c1`: the EC50 in the experiment with Plasmodium falciparum [1] was more than 15 µM; in the experiment with Raji it was more than 26 µM; with HEK293 it was more than 26 µM; in the experiment on HepG2, more than 26 µM; in the experiment on Plasmodium falciparum [2] it was more than 15 µM; in the experiment with BJ it was more than 26 µM.
On to `CCOC(=O)CCCCCOc1cccc(CN(C(=O)c2ccc(-c3cccc(O)c3)cc2)C(C)C)c1`, for which the EC50 in the experiment with Plasmodium falciparum [1] was more than 15 µM; in the experiment with Raji, more than 26 µM; in the experiment with HEK293 it was more than 26 µM; in the experiment on HepG2, more than 26 µM; in the experiment on Plasmodium falciparum [2] it was more than 15 µM; with BJ, more than 26 µM.
As for `CCOC(=O)CCCCCOc1cccc(CN(C(=O)c2ccc(-c3cccc(OC(F)(F)F)c3)cc2)C(C)C)c1`, the EC50 in the experiment on Plasmodium falciparum [1] is more than 15 µM; in the experiment on Raji it was more than 26 µM; in the experiment on HEK293, more than 26 µM; in the experiment on HepG2, more than 26 µM; with Plasmodium falciparum [2], more than 15 µM; in the experiment on BJ, more than 26 µM.
On to `CCOC(=O)CCCCCOc1cccc(CN(C(=O)c2ccc(-c3cc(F)cc(OC)c3)cc2)C(C)C)c1`, for which the concentration giving a half-maximal response (EC50) in the experiment on Plasmodium falciparum [1] is more than 15 µM; in the experiment on Raji, more than 26 µM; in the experiment on HEK293 it was more than 26 µM; in the experiment on HepG2, more than 26 µM; in the experiment on Plasmodium falciparum [2], more than 15 µM; in the experiment with BJ it was more than 26 µM.
Take `CCOC(=O)CCCCCOc1cccc(CN(C(=O)c2ccc(-c3cc(OC)ccc3F)cc2)C(C)C)c1`: the EC50 was more than 15 µM in the experiment with Plasmodium falciparum [1]; more than 26 µM in the experiment with Raji; more than 26 µM in the experiment on HEK293; more than 26 µM with HepG2; more than 15 µM in the experiment with Plasmodium falciparum [2]; more than 26 µM with BJ.
For `CCOC(=O)CCCCCOc1cccc(CN(C(=O)c2ccc(-c3cc(C(F)(F)F)cc(C(F)(F)F)c3)cc2)C(C)C)c1`, the EC50 in the experiment with Plasmodium falciparum [1] was more than 15 µM; with Raji, more than 26 µM; in the experiment with HEK293, more than 26 µM; with HepG2, more than 26 µM; with Plasmodium falciparum [2], more than 15 µM; in the experiment on BJ, more than 26 µM.
Regarding `CCOC(=O)CCCCCOc1cccc(CN(C(=O)c2ccc(-c3cccc(F)c3)cc2)C(C)C)c1`, the EC50 in the experiment with Plasmodium falciparum [1] was more than 15 µM; in the experiment on Raji, more than 26 µM; with HEK293, more than 26 µM; in the experiment with HepG2, more than 26 µM; with Plasmodium falciparum [2] it was more than 15 µM; in the experiment on BJ, more than 26 µM.
On to `CCOC(=O)CCCCCOc1cccc(CN(C(=O)c2ccc(-c3cccc(Br)c3)cc2)C(C)C)c1`, for which the EC50 with Plasmodium falciparum [1] was more than 15 µM; in the experiment on Raji, more than 26 µM; with HEK293 it was more than 26 µM; with HepG2, more than 26 µM; with Plasmodium falciparum [2] it was more than 15 µM; with BJ it was more than 26 µM.
Take `CCOC(=O)CCCCCOc1cccc(CN(C(=O)c2ccc(-c3ccc(Cl)c(Cl)c3)cc2)C(C)C)c1`: the EC50 with Plasmodium falciparum [1] is more than 15 µM; in the experiment with Raji, more than 26 µM; in the experiment on HEK293, more than 26 µM; in the experiment on HepG2, more than 26 µM; with Plasmodium falciparum [2], more than 15 µM; with BJ, more than 26 µM.
As for `CCOC(=O)CCCCCOc1cccc(CN(C(=O)c2ccc(-c3cccc(Cl)c3)cc2)C(C)C)c1`, the 50% effective concentration (EC50) in the experiment on Plasmodium falciparum [1] is more than 10.2 µM; with Raji, more than 18.5 µM; in the experiment with HEK293, more than 18.5 µM; with HepG2 it was more than 18.5 µM; with Plasmodium falciparum [2] it was more than 10.2 µM; with BJ it was more than 18.5 µM.
Consider `CCOC(=O)CCCCCOc1cccc(CN(C(=O)c2ccc(-c3cccc(S(C)(=O)=O)c3)cc2)C(C)C)c1`, for which the EC50 with Plasmodium falciparum [1] is more than 15 µM; in the experiment with Raji, more than 26 µM; in the experiment on HEK293, more than 26 µM; in the experiment on HepG2 it was more than 26 µM; with Plasmodium falciparum [2] it was more than 15 µM; with BJ, more than 26 µM.
Consider `CCOC(=O)CCCCCOc1cccc(CN(C(=O)c2ccc(-c3cccc(CC(=O)O)c3)cc2)C(C)C)c1`, for which the concentration giving a half-maximal response (EC50) is more than 15 µM with Plasmodium falciparum [1]; more than 26 µM with Raji; more than 26 µM in the experiment with HEK293; more than 26 µM in the experiment with HepG2; more than 15 µM in the experiment on Plasmodium falciparum [2]; more than 26 µM with BJ.
As for `CCOC(=O)CCCCCOc1cccc(CN(C(=O)c2ccc(-c3cccc(N(C)C)c3)cc2)C(C)C)c1`, the EC50 in the experiment with Plasmodium falciparum [1] is more than 15 µM; in the experiment with Raji, more than 26 µM; in the experiment on HEK293, more than 26 µM; in the experiment on HepG2 it was more than 26 µM; in the experiment with Plasmodium falciparum [2], more than 15 µM; in the experiment on BJ, more than 26 µM.
For the molecule `CCOC(=O)CCCCCOc1cccc(CN(C(=O)c2ccc(-c3cccc(NC(C)=O)c3)cc2)C(C)C)c1`, the EC50 with Plasmodium falciparum [1] was more than 15 µM; in the experiment on Raji, more than 26 µM; with HEK293, more than 26 µM; in the experiment with HepG2 it was more than 26 µM; with Plasmodium falciparum [2] it was more than 15 µM; in the experiment with BJ, more than 26 µM.
Take `CCOC(=O)CCCCCOc1cccc(CN(C(=O)c2ccc(-c3ccncc3)cc2)C(C)C)c1`: the EC50 with Plasmodium falciparum [1] is 0.0008 µM; with Raji, more than 26 µM; in the experiment with HEK293, more than 26 µM; in the experiment with HepG2, more than 26 µM; with Plasmodium falciparum [2], less than 0.0008 µM; in the experiment with BJ, more than 26 µM.
